Test results published in article PMC7265341, “Quantifying CDK inhibitor selectivity in live cells” (Nature Communications, 2020).
Where two headings read alike, the source gives them in different places.

What was measured:
Assay type in all cases: binding
CDK8/Cyclin C = CDK8/Cyclin C (Homo sapiens, UniProt P49336); assay: NanoBRET live-cell target engagement, NanoLuc-CDK8/Cyclin C in HEK-293
CDK14/Cyclin Y = CDK14/Cyclin Y (Homo sapiens, UniProt O94921); assay: NanoBRET live-cell target engagement, CDK14-NanoLuc/Cyclin Y in HEK-293; conditions: CDK14/Y
CDK14/Cyclin Y, sequence (O94921 whole entry): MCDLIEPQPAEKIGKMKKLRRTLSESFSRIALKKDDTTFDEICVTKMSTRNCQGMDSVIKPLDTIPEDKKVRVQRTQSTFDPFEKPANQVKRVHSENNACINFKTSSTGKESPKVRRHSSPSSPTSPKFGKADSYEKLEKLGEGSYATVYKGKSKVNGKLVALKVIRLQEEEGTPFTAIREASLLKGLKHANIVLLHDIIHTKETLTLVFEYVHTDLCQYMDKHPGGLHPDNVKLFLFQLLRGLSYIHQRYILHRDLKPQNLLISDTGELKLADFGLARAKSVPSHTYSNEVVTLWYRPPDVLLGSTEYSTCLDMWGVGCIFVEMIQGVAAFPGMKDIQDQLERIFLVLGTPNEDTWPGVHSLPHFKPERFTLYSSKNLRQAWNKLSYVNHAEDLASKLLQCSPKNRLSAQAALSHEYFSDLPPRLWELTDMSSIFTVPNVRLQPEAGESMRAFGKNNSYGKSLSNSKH
CDK14/Cyclin Y, sequence (Q8ND76 whole entry partner): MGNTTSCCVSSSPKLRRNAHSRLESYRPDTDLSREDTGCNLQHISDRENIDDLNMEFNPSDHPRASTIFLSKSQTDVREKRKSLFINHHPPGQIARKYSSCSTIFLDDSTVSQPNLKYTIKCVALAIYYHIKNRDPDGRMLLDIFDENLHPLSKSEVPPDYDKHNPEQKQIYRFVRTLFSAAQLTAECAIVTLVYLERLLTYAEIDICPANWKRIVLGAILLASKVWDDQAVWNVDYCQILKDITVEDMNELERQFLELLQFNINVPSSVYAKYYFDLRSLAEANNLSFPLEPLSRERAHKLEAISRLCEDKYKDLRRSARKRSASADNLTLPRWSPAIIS

CDK20/Cyclin H = CDK20/Cyclin H (Homo sapiens, UniProt Q8IZL9); assay: NanoBRET live-cell target engagement, NanoLuc-CDK20/Cyclin H in HEK-293; conditions: CDK20/H, 10µM
CDK16/Cyclin Y = CDK16/Cyclin Y (Homo sapiens, UniProt Q00536); assay: NanoBRET live-cell target engagement, CDK16-NanoLuc/Cyclin Y in HEK-293; conditions: CDK16/Y
CDK4/Cyclin D1 = CDK4/Cyclin D1 (Homo sapiens, UniProt P11802); assay: NanoBRET live-cell target engagement, NanoLuc-CDK4/Cyclin D1 in HEK-293; conditions: CDK4/D1, 10µM
CDK4/Cyclin D1, sequence (P11802 whole entry): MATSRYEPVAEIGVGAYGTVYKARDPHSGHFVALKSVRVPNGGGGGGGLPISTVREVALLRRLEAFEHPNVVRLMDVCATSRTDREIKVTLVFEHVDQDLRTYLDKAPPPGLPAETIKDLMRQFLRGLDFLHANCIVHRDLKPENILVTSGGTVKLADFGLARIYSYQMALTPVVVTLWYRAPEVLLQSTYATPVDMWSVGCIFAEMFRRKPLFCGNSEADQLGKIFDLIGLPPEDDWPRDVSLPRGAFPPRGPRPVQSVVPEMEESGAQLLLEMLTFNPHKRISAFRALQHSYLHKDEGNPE
CDK4/Cyclin D1, sequence (P24385 whole entry partner): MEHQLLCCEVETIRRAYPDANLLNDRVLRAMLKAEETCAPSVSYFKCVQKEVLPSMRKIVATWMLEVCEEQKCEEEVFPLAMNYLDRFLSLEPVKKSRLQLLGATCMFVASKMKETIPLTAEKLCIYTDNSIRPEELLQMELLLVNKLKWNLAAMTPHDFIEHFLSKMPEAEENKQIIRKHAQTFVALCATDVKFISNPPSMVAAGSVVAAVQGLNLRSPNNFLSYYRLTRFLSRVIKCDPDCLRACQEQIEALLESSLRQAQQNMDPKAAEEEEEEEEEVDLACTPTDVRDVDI

CDK15/Cyclin Y = CDK15/Cyclin Y (Homo sapiens, UniProt Q96Q40); assay: NanoBRET live-cell target engagement, NanoLuc-CDK15/Cyclin Y in HEK-293; conditions: CDK15/Y, 10µM
CDK15/Cyclin Y, sequence (Q96Q40 whole entry): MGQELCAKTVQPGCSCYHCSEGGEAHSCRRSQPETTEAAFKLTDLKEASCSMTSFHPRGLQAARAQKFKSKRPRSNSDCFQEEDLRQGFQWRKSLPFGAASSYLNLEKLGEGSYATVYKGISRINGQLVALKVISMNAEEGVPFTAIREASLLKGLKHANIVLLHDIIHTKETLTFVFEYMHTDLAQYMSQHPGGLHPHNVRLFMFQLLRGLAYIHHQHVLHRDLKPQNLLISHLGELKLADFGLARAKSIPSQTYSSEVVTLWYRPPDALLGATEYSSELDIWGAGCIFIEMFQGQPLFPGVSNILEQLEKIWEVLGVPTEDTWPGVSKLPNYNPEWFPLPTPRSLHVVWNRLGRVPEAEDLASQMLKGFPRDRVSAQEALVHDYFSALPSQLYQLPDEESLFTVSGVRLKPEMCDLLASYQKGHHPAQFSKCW
CDK15/Cyclin Y, sequence (Q8ND76 whole entry partner): as the sequence (Q8ND76 whole entry partner) above

CDK7 = CDK7 (Homo sapiens, UniProt P50613); assay: NanoBRET live-cell target engagement, NanoLuc-CDK7 in HEK-293; conditions: CDK7
CDK7, sequence (P50613 whole entry): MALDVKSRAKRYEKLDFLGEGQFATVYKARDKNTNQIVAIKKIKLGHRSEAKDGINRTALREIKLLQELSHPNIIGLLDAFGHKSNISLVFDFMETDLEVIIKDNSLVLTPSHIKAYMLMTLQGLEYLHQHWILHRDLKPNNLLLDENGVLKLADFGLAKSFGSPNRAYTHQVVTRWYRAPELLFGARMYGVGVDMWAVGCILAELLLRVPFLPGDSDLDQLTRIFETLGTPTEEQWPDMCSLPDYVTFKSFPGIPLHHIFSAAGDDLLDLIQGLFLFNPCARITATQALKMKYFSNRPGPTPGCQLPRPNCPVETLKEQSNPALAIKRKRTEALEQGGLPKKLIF

CDK9/Cyclin K = CDK9/Cyclin K (Homo sapiens, UniProt P50750); assay: NanoBRET live-cell target engagement, NanoLuc-CDK9/Cyclin K in HEK-293; conditions: CDK9/K, 10µM
CDK9/Cyclin K, sequence (P50750 whole entry): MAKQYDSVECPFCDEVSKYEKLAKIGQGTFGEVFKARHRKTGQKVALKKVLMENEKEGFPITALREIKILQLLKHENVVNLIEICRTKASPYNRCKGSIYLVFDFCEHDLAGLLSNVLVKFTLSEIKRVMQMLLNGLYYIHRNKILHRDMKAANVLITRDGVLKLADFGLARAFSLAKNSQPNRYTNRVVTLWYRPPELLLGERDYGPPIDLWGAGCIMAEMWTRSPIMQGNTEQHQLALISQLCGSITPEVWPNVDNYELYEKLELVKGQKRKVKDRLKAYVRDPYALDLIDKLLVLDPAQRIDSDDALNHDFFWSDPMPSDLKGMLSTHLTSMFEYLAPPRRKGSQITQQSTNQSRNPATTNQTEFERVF
CDK9/Cyclin K, sequence (O75909 whole entry partner): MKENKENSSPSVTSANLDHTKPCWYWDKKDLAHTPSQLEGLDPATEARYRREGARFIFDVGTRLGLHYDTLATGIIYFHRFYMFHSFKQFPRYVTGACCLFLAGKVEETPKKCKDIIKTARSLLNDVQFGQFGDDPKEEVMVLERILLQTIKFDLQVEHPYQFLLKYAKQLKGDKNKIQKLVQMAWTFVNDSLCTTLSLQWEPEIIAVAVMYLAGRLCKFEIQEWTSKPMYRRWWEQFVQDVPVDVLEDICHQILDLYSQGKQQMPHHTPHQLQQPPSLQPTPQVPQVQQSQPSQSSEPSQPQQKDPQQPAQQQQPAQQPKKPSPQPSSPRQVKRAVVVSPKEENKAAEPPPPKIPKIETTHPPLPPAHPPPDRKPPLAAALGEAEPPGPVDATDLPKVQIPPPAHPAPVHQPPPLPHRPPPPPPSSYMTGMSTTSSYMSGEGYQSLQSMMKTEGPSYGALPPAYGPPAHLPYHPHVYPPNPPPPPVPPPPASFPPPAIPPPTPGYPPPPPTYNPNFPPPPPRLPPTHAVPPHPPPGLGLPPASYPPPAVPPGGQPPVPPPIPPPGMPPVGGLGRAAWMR

CDK11B/Cyclin L2 = CDK11B/Cyclin L2 (Homo sapiens, UniProt P21127); assay: NanoBRET live-cell target engagement, CDK11B-NanoLuc/Cyclin L2 in HEK-293; conditions: CDK11b/L2, 10µM
CDK11B/Cyclin L2, sequence (P21127 1-782 isoform P21127-2): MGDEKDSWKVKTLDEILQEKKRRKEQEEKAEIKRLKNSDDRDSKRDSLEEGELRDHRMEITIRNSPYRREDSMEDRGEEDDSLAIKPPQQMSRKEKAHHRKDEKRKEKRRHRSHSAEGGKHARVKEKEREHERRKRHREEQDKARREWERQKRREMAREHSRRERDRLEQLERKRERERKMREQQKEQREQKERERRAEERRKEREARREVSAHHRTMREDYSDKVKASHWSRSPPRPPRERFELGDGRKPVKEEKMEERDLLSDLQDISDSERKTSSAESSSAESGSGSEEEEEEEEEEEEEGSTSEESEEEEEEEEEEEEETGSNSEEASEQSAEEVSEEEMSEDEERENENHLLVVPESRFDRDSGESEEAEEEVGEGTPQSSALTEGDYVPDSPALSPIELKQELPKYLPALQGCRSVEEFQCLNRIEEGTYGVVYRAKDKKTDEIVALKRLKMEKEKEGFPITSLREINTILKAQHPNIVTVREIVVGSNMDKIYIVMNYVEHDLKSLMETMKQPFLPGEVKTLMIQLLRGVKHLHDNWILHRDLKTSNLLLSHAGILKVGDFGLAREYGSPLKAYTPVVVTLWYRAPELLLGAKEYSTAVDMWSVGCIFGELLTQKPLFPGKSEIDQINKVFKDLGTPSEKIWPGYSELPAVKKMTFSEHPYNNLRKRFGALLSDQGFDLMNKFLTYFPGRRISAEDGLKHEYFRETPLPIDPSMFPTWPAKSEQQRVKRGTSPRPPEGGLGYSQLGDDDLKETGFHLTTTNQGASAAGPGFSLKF

CDK17/Cyclin Y = CDK17/Cyclin Y (Homo sapiens, UniProt Q00537); assay: NanoBRET live-cell target engagement, CDK17-NanoLuc/Cyclin Y in HEK-293; conditions: CDK17/Y, 10µM
[1] = average of replicates, read-out: Inhibition at 10µM (%) Average
[2] = read-out: Inhibition at 10µM (%) Replicate 1
[3] = read-out: Inhibition at 10µM (%) Replicate 2
[4] = n=3 average ± SEM, n=2 average to 2 significant figures, read-out: IC50 (nM) Average*
[5] = read-out: IC50 (nM) Replicate 1
[6] = read-out: IC50 (nM) Replicate 2
[7] = read-out: IC50 (nM) Replicate 3

CDK8/Cyclin C, sequence (P49336 whole entry): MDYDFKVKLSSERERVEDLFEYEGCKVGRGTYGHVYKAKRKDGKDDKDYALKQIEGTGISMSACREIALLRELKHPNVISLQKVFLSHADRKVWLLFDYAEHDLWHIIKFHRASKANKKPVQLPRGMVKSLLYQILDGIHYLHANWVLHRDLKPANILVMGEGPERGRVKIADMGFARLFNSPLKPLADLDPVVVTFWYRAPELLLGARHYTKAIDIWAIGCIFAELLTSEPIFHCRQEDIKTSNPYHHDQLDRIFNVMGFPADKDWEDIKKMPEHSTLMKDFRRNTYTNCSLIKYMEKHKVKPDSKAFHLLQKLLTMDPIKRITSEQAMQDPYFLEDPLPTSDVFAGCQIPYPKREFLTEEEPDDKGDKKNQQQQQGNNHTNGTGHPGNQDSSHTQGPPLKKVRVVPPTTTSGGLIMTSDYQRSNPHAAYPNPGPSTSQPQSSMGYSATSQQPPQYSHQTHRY
CDK8/Cyclin C, sequence (P24863 whole entry partner): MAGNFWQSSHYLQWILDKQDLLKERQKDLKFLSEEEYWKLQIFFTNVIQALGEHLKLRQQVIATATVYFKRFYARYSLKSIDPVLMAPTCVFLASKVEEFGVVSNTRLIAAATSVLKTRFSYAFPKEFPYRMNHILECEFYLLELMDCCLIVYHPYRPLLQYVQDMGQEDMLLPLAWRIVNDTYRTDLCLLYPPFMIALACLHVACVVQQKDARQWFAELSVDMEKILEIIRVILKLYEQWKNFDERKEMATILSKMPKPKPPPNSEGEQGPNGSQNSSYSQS

CCCCOc1c(C(=O)c2c(F)cc(C)cc2F)c[nH]c2nncc1-2 [BMS-265246]
inhibition at 10 µM (CDK8/Cyclin C; CDK8/C, average of replicates, read-out: Inhibition at 10µM (%) Average): 95.1%
inhibition at 10 µM (CDK8/Cyclin C; CDK8/C, read-out: Inhibition at 10µM (%) Replicate 1): 97.6%
inhibition at 10 µM (CDK8/Cyclin C; CDK8/C, read-out: Inhibition at 10µM (%) Replicate 2): 92.5%
IC50 (CDK8/Cyclin C; CDK8/C, read-out: IC50 (nM) Replicate 1): 1.2 nM
IC50 (CDK8/Cyclin C; CDK8/C, read-out: IC50 (nM) Replicate 2): 0.45 nM
IC50 (CDK8/Cyclin C; CDK8/C, read-out: IC50 (nM) Replicate 3): 0.5 nM
IC50 (CDK8/Cyclin C; live HEK-293, 2 h, mean ± S.E.M. (n=3) or mean (n=2), read-out: IC50 for CDK/cyclin complexes, CDK8/C): 0.7 nM
Kd (CDK8/Cyclin C; live HEK-293, read-out: Kd-apparent, CDK8 live-cell occupancy): < 2 nM
inhibition at 10 µM (CDK14/Cyclin Y; [1]): 43.5%
inhibition at 10 µM (CDK14/Cyclin Y; [2]): 68.1%
inhibition at 10 µM (CDK14/Cyclin Y; [3]): 18.8%
IC50 (CDK14/Cyclin Y; [4]): 200 ± 200 nM
IC50 (CDK14/Cyclin Y; [5]): 10 nM
IC50 (CDK14/Cyclin Y; [6]): 100 nM
IC50 (CDK14/Cyclin Y; [7]): 570 nM
inhibition at 10 µM (CDK20/Cyclin H; [2]): 14.5%
inhibition at 10 µM (CDK20/Cyclin H; [3]): -14.1%
inhibition at 10 µM (CDK16/Cyclin Y; [2]): 70.8%
inhibition at 10 µM (CDK16/Cyclin Y; [3]): 76.5%
IC50 (CDK16/Cyclin Y; [4]): 50 ± 20 nM
IC50 (CDK16/Cyclin Y; [5]): 5.7 nM
IC50 (CDK16/Cyclin Y; [6]): 63 nM
IC50 (CDK16/Cyclin Y; [7]): 79 nM
inhibition at 10 µM (CDK4/Cyclin D1; [1]): 49.1%
inhibition at 10 µM (CDK4/Cyclin D1; [2]): 49%
inhibition at 10 µM (CDK4/Cyclin D1; [3]): 49.3%
inhibition at 10 µM (CDK15/Cyclin Y; [1]): 35.1%
inhibition at 10 µM (CDK15/Cyclin Y; [2]): 51.3%
inhibition at 10 µM (CDK15/Cyclin Y; [3]): 19%
inhibition at 10 µM (CDK7; [1]): 43.7%
inhibition at 10 µM (CDK7; [2]): 21%
inhibition at 10 µM (CDK7; [3]): 66.3%
IC50 (CDK7; [4]): 180 ± 10 nM
IC50 (CDK7; [5]): 160 nM
IC50 (CDK7; [6]): 170 nM
IC50 (CDK7; [7]): 197 nM
inhibition at 10 µM (CDK9/Cyclin K; [1]): 26.1%
inhibition at 10 µM (CDK9/Cyclin K; [2]): 31%
inhibition at 10 µM (CDK9/Cyclin K; [3]): 21.3%
inhibition at 10 µM (CDK11B/Cyclin L2; [1]): 11.8%
inhibition at 10 µM (CDK11B/Cyclin L2; [2]): 9.8%
inhibition at 10 µM (CDK11B/Cyclin L2; [3]): 13.8%
inhibition at 10 µM (CDK17/Cyclin Y; [1]): 75.2%
inhibition at 10 µM (CDK17/Cyclin Y; [2]): 71.1%
